Experimental data: patent publication US20040235874A1, “Fungicidal composition comprising pyrimethanil and iprodione” (priority 2001, published 2004)

Tests used:
Type in all cases: in vivo
Sclerotinia sclerotinium = assay: Control of Sclerotinia on lettuce, counting of attacked plants; conditions: lettuce Manita
Experimental: This sample illustrates the efficacy of a composition according to the invention which comprises pyrimethanil and iprodione as active ingredients for controlling Sclerotinia sclerotinium on lettuce. The following fungicidal compounds are compared: iprodione at the dose of 750 g/ha, pyrimethanil at the dose of 800 g/ha, […] A total of 5 […] carried out on lettuce plants ([…] variety). An inoculation with Sclerotinia is carried out the next day after the first treatment by spreading contaminated rape plant stems on the soil. 11 countings of the lettuce plants attacked by Schlerotinia are carried out throughout the trial.

Alternaria dauci = assay: Field control of Alternaria dauci on carrot; conditions: carrot Nantes
Description: This example illustrates the efficacy of a composition according to the invention which comprises pyrimethanil and iprodione as active ingredients for controlling alternaria dauci on carrot. The following fungicidal compounds are compared: iprodione at the dose of 750 g/ha, pyrimethanil at the dose of 600 g/ha, […] The products are applied to carrot (Nantes variety) which is sensitive to Alternaria dauci. The various products to be studied are sprayed at the rate of 3 applications in total with intervals of 8 days between the 1st and 2nd applications and of 10 days between the 2nd and 3rd application. Scores for the disease (percentage of foliar surface area destroyed) are awarded 7 days after the 1st and 2nd applications and then 3 days and 8 days after the 3rd application.

Alternaria porri = assay: Control of Alternaria porri on onion, yield at harvest; conditions: for Yield (kg/ha): onion bulbs, harvest 32 days after last of 5 applications; for Yield gain (%): onion, compared with the untreated control
Experimental: This example illustrates the efficacy of a composition according to the invention which comprises pyrimethanil and iprodione as active ingredients for controlling Alternaria porri on onion.
The following fungicidal compounds are compared:
iprodione at the dose of 750 g/ha,
pyrimethanil at the dose of 600 g/ha,
iprodione+pyrimethanil at the doses of 300+150 g/ha to be applied in a mixture volume of 1 000 l/ha.
A total of 5 successive preventive sprayings are carried out on onion plants which were initially 31 days old and at a rhythm of 13 days.
32 days after the last application, harvesting is carried out and the yield is calculated in terms of kg of bulbs/ha and the yield gain expressed by comparing with the untreated control.

Alternaria solani = assay: Field control of Alternaria solani on potato; conditions: potato Bintje
Description: This example illustrates the efficacy of a composition according to the invention which comprises pyrimethanil and iprodione as active ingredients for controlling Alternaria solani on the potato. […] The following fungicidal compounds are compared: iprodione at the dose of 750 g/ha, pyrimethanil at the dose of 600 g/ha, […] The products are applied to potato (Bintje variety) which is sensitive to Alternaria solani. […] mancozeb—product tested—mancozeb—product tested—mancozeb—product tested. Scores for the disease (percentage of foliar surface area destroyed) are awarded 15 days after the second application of the experiment products (15 DAB), 8 days and 17 days after the third application of the experimental products (8 DAC and 17 DAC).

Ascochyta pisi = assay: Control of Ascochyta pisi on protein-rich peas; conditions: pea Baccara, 23 days after second application
Description: This example illustrates the efficacy of a composition according to the invention which comprises pyrimethanil and iprodione as active ingredients for controlling Ascochyta pisi on protein-rich peas. The following fungicidal compounds are compared: […] pyrimethanil at the dose of 600 g/ha, […] Two successive […] carried out on pea plants (Baccara variety) at the flowering stages and then two weeks after the first application. 23 days after the second application, the percentage of diseased leaves and pods is calculated; the results are presented in table 5.

## CC(C)NC(=O)N1CC(=O)N(c2cc(Cl)cc(Cl)c2)C1=O [iprodione]
Sclerotinia sclerotinium; 750 g/ha, counting 1
  Counting of the lettuce plants attacked by Sclerotinia: 1
Sclerotinia sclerotinium; 750 g/ha, counting 2
  Counting of the lettuce plants attacked by Sclerotinia: 2.5
Sclerotinia sclerotinium; 750 g/ha, counting 3
  Counting of the lettuce plants attacked by Sclerotinia: 3
Sclerotinia sclerotinium; 750 g/ha, counting 4
  Counting of the lettuce plants attacked by Sclerotinia: 4
Sclerotinia sclerotinium; 750 g/ha, counting 5
  Counting of the lettuce plants attacked by Sclerotinia: 4
Sclerotinia sclerotinium; 750 g/ha, counting 6
  Counting of the lettuce plants attacked by Sclerotinia: 4.8
Sclerotinia sclerotinium; 750 g/ha, counting 7
  Counting of the lettuce plants attacked by Sclerotinia: 5.5
Sclerotinia sclerotinium; 750 g/ha, counting 8
  Counting of the lettuce plants attacked by Sclerotinia: 5.9
Sclerotinia sclerotinium; 750 g/ha, counting 9
  Counting of the lettuce plants attacked by Sclerotinia: 6.7
Sclerotinia sclerotinium; 750 g/ha, counting 10
  Counting of the lettuce plants attacked by Sclerotinia: 7.4
Sclerotinia sclerotinium; 750 g/ha, counting 11
  Counting of the lettuce plants attacked by Sclerotinia: 7.9
Alternaria dauci; 750 g/ha, 3 DAC
  Score for the disease (percentage of foliar surface area destroyed): 19.4%
Alternaria dauci; 750 g/ha, 7 DAA
  Score for the disease (percentage of foliar surface area destroyed): 8.7%
Alternaria dauci; 750 g/ha, 7 DAB
  Score for the disease (percentage of foliar surface area destroyed): 11.9%
Alternaria dauci; 750 g/ha, 8 DAC
  Score for the disease (percentage of foliar surface area destroyed): 35%
Alternaria porri; 750 g/ha
  Yield (kg/ha): 33 000 kg/ha
  Yield gain (%): 16.8%
Alternaria solani; 750 g/ha, 8 DAC
  Score for the disease (percentage of foliar surface area destroyed): 4.38%
Alternaria solani; 750 g/ha, 15 DAB
  Score for the disease (percentage of foliar surface area destroyed): 1.75%
Alternaria solani; 750 g/ha, 17 DAC
  Score for the disease (percentage of foliar surface area destroyed): 10%
Ascochyta pisi; 500 g/ha, first column
  Amount of diseased leaves (%): 46%
Ascochyta pisi; 500 g/ha, second column
  Amount of diseased leaves (%): 34%

## Cc1cc(C)nc(Nc2ccccc2)n1 [pyrimethanil]
Sclerotinia sclerotinium; 800 g/ha, counting 1
  Counting of the lettuce plants attacked by Sclerotinia: 3.5
Sclerotinia sclerotinium; 800 g/ha, counting 2
  Counting of the lettuce plants attacked by Sclerotinia: 5.5
Sclerotinia sclerotinium; 800 g/ha, counting 3
  Counting of the lettuce plants attacked by Sclerotinia: 8
Sclerotinia sclerotinium; 800 g/ha, counting 4
  Counting of the lettuce plants attacked by Sclerotinia: 14.8
Sclerotinia sclerotinium; 800 g/ha, counting 5
  Counting of the lettuce plants attacked by Sclerotinia: 18
Sclerotinia sclerotinium; 800 g/ha, counting 6
  Counting of the lettuce plants attacked by Sclerotinia: 22.8
Sclerotinia sclerotinium; 800 g/ha, counting 7
  Counting of the lettuce plants attacked by Sclerotinia: 26
Sclerotinia sclerotinium; 800 g/ha, counting 8
  Counting of the lettuce plants attacked by Sclerotinia: 29.4
Sclerotinia sclerotinium; 800 g/ha, counting 9
  Counting of the lettuce plants attacked by Sclerotinia: 31.4
Sclerotinia sclerotinium; 800 g/ha, counting 10
  Counting of the lettuce plants attacked by Sclerotinia: 33.9
Sclerotinia sclerotinium; 800 g/ha, counting 11
  Counting of the lettuce plants attacked by Sclerotinia: 35.8
Alternaria dauci; 600 g/ha, 3 DAC
  Score for the disease (percentage of foliar surface area destroyed): 31.2%
Alternaria dauci; 600 g/ha, 7 DAA
  Score for the disease (percentage of foliar surface area destroyed): 11.9%
Alternaria dauci; 600 g/ha, 7 DAB
  Score for the disease (percentage of foliar surface area destroyed): 21.9%
Alternaria dauci; 600 g/ha, 8 DAC
  Score for the disease (percentage of foliar surface area destroyed): 57.5%
Alternaria porri; 600 g/ha
  Yield (kg/ha): 31 500 kg/ha
  Yield gain (%): 11.5%
Alternaria solani; 600 g/ha, 8 DAC
  Score for the disease (percentage of foliar surface area destroyed): 8.75%
Alternaria solani; 600 g/ha, 15 DAB
  Score for the disease (percentage of foliar surface area destroyed): 3.44%
Alternaria solani; 600 g/ha, 17 DAC
  Score for the disease (percentage of foliar surface area destroyed): 13.13%
Ascochyta pisi; 600 g/ha, first column
  Amount of diseased leaves (%): 21%
Ascochyta pisi; 600 g/ha, second column
  Amount of diseased leaves (%): 16%
